Results: ChEMBL document CHEMBL5058646 (2022)

Columns and labels:
[1] = biological target: Serine/threonine-protein kinase pim-3 (Homo sapiens) (UniProt Q86V86); experiment: PIM3 SGC Tm panel (DSF); settings: Compound concentration 20.0 uM
[2] = biological target: T1, Transcriptional regulator Kaiso (Homo sapiens) (UniProt Q86T24); settings: SUD4, Compound concentration 1.0 uM
T1 sequence (whole entry): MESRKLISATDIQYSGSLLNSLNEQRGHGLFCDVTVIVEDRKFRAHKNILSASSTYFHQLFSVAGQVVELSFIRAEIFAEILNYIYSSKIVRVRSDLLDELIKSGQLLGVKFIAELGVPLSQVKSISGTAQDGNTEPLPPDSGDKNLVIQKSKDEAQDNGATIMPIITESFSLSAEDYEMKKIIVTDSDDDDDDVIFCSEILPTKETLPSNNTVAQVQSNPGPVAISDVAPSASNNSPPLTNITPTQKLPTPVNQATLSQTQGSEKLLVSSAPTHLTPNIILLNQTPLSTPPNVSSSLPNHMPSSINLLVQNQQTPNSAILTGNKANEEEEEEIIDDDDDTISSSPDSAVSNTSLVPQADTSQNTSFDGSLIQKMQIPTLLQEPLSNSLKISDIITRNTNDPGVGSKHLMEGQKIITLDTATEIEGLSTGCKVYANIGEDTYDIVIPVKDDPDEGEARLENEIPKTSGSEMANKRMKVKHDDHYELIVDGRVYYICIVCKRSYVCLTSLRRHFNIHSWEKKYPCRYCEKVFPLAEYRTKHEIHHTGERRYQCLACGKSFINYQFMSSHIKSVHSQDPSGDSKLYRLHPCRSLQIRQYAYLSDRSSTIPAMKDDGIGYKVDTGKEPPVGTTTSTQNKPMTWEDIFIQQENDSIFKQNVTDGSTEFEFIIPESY

[3] = biological target: Dual specificity mitogen-activated protein kinase kinase 7 (Homo sapiens) (UniProt O14733); experiment: MAP2K7 SGC Tm panel (DSF); settings: Compound concentration 20.0 uM
[4] = biological target: 5-hydroxytryptamine receptor 2C (Homo sapiens) (UniProt P28335); settings: Compound concentration 10.0 uM
[5] = biological target: Serine/threonine-protein kinase PAK 1 (Homo sapiens) (UniProt Q13153); experiment: PAK1 SGC Tm panel (DSF); settings: Compound concentration 20.0 uM
[6] = biological target: T2, Zinc finger and BTB domain-containing protein 24 (Homo sapiens) (UniProt O43167); settings: OCI-Ly1, Compound concentration 1.0 uM
T2 sequence (whole entry): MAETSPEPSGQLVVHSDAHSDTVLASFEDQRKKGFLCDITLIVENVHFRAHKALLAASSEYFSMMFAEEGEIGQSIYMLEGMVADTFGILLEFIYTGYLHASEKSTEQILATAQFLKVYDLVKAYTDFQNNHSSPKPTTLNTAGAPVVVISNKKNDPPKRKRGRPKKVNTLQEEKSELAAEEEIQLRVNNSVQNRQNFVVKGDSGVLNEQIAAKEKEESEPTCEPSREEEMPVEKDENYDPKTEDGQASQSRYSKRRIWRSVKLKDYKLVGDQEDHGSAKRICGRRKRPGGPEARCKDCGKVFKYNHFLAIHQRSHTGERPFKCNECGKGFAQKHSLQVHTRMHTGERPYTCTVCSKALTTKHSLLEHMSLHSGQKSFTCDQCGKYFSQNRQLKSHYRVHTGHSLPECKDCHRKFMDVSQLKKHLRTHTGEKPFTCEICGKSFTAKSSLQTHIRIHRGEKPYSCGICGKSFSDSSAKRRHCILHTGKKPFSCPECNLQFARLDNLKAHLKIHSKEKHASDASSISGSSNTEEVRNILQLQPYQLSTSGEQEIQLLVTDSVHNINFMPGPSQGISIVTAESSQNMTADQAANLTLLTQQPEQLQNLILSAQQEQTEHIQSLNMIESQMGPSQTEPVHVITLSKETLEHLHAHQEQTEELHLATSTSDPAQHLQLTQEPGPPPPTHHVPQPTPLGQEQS

[7] = biological target: T3, Zinc finger protein 131 (Homo sapiens) (UniProt P52739); settings: SUD4, Compound concentration 1.0 uM
T3 sequence (whole entry): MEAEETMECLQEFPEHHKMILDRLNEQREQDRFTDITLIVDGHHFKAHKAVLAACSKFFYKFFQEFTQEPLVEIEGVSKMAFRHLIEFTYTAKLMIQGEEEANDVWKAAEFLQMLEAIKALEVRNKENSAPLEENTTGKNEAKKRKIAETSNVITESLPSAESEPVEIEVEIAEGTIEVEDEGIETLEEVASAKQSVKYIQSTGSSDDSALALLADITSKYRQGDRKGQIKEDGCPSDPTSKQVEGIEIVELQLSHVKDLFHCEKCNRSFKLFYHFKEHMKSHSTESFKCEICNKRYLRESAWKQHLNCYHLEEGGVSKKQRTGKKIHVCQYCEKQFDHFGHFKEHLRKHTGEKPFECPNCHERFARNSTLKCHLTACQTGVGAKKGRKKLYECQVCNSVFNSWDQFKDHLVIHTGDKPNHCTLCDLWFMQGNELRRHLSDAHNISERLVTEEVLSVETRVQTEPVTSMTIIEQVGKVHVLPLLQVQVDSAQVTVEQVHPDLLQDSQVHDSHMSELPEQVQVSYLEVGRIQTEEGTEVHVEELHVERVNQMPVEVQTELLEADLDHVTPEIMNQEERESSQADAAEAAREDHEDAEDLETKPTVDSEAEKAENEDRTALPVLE

[8] = biological target: Vascular endothelial growth factor receptor 1 (Homo sapiens) (UniProt P17948); experiment: FLT1 SGC Tm panel (DSF); settings: Compound concentration 20.0 uM
[9] = biological target: Tyrosine-protein kinase ABL1 (Homo sapiens) (UniProt P00519); experiment: ABL1 SGC Tm panel (DSF); settings: Compound concentration 20.0 uM
[10] = biological target: Muscarinic acetylcholine receptor M4 (Homo sapiens) (UniProt P08173); settings: Compound concentration 10.0 uM
[11] = biological target: Calcium/calmodulin-dependent protein kinase type 1G (Homo sapiens) (UniProt Q96NX5); experiment: CAMK1G SGC Tm panel (DSF); settings: Compound concentration 20.0 uM
Calcium/calmodulin-dependent protein kinase type 1G (Homo sapiens), sequence (Q96NX5 whole entry): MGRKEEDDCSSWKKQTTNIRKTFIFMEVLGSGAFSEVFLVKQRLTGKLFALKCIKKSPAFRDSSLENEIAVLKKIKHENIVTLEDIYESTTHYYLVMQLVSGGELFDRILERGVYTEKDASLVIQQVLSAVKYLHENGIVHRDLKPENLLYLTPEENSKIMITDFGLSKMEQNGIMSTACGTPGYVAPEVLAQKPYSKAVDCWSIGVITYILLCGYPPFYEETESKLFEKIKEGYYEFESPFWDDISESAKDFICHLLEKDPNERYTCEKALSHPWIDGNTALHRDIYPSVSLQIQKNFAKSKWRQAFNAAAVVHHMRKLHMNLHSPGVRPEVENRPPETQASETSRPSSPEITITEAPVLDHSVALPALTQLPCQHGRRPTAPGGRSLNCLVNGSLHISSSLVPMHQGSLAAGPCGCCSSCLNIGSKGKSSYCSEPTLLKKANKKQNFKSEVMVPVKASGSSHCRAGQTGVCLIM

Serine/threonine-protein kinase PAK 1 (Homo sapiens), sequence (Q13153 whole entry, the tested form may be a part): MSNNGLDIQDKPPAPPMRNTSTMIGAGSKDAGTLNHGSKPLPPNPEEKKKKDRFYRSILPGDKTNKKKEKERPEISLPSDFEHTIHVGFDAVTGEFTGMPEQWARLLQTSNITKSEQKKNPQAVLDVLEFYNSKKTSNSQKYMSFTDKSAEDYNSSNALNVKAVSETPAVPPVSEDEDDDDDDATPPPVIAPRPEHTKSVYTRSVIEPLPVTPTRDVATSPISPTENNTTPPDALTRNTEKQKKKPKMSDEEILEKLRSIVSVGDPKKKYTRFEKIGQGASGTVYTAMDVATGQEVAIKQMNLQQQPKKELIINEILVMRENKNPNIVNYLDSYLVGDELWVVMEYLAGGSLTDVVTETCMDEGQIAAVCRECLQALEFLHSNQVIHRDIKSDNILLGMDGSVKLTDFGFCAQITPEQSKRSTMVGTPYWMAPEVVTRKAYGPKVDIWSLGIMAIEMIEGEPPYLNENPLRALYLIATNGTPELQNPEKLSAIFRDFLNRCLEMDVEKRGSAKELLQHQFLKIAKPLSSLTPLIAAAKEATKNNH
Dual specificity mitogen-activated protein kinase kinase 7 (Homo sapiens), sequence (O14733 whole entry): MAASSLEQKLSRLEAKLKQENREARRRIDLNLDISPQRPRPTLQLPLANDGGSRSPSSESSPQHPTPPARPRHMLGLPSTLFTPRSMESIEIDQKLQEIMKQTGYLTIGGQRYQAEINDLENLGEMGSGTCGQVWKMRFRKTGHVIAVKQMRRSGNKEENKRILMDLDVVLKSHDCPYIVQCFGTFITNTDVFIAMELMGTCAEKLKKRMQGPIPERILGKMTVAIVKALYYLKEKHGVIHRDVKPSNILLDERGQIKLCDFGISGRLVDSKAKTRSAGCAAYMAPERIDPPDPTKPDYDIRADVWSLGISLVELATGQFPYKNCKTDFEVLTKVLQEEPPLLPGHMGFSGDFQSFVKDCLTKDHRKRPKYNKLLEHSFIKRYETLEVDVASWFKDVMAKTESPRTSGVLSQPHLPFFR
5-hydroxytryptamine receptor 2C (Homo sapiens), sequence (P28335 whole entry): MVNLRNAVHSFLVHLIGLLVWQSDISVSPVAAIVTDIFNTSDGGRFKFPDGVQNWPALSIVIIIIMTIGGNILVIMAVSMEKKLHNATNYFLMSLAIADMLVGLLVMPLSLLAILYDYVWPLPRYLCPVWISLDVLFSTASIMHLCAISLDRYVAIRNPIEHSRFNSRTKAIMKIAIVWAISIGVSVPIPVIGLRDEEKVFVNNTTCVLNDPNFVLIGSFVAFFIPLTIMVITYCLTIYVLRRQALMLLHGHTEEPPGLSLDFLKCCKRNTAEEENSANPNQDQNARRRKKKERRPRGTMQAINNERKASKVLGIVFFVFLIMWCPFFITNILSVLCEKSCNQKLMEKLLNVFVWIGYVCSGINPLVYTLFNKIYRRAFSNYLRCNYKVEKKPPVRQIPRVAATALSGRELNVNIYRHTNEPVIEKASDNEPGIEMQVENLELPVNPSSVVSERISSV
Vascular endothelial growth factor receptor 1 (Homo sapiens), sequence (P17948 whole entry): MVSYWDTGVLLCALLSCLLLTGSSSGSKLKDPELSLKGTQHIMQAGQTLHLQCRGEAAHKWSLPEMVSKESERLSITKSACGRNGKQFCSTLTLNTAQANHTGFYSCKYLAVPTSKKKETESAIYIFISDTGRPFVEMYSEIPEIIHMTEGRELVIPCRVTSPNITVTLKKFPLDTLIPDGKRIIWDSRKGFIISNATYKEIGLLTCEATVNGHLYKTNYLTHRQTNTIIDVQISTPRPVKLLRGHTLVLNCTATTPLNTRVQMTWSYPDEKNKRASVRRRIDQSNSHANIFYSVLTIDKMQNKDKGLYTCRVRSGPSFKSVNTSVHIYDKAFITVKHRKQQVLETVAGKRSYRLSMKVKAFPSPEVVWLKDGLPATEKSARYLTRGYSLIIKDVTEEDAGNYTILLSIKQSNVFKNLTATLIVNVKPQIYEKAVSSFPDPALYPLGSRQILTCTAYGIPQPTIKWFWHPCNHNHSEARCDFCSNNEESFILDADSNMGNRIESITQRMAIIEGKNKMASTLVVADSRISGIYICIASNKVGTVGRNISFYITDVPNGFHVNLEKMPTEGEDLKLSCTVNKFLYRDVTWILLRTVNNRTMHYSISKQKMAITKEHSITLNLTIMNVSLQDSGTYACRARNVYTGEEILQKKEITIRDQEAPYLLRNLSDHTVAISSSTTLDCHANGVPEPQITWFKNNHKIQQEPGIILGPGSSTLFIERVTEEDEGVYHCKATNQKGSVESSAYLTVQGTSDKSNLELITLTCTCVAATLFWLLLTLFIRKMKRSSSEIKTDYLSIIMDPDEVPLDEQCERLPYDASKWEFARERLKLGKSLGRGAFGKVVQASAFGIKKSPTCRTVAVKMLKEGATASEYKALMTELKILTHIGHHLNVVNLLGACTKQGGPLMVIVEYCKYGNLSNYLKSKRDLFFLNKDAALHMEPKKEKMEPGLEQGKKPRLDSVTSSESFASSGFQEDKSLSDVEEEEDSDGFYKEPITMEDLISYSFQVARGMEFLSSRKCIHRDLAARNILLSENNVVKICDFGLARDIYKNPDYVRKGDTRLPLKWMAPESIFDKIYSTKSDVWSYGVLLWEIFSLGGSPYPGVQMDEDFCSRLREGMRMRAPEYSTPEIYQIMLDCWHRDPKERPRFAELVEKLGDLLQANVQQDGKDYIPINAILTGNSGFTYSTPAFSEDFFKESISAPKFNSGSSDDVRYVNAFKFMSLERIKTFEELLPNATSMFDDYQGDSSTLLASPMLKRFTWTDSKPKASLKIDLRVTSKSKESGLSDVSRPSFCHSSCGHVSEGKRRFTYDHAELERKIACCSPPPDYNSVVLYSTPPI
Tyrosine-protein kinase ABL1 (Homo sapiens), sequence (P00519 whole entry): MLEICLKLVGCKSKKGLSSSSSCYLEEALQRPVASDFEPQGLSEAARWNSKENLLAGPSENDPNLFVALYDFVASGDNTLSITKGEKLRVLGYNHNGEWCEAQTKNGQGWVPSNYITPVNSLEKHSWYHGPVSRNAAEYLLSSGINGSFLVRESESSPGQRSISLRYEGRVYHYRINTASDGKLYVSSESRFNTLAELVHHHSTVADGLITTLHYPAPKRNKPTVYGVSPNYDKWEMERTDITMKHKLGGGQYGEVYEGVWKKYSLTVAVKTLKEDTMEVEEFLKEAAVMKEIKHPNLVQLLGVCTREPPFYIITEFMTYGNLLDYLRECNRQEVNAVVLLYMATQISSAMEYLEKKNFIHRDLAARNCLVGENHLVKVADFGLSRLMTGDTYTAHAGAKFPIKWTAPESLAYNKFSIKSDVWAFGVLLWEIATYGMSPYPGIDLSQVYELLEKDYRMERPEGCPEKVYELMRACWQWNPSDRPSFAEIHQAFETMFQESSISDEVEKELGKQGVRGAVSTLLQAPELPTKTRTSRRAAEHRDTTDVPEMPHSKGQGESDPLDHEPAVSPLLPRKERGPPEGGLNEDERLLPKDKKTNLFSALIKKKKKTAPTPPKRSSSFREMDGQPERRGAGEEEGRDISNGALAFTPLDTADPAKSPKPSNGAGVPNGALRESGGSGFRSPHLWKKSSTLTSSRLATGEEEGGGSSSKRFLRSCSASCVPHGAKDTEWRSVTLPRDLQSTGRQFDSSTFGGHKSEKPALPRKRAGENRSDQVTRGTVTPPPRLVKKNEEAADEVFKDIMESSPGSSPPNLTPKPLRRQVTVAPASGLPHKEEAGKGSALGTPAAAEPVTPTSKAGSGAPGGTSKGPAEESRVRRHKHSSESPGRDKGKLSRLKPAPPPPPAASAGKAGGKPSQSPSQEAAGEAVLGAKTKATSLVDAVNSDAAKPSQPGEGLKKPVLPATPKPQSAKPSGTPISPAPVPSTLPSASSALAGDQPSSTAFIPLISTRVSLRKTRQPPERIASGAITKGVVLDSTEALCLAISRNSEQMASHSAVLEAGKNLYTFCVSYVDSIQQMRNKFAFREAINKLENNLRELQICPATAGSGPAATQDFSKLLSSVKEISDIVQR

C[C@@H]1CN(c2ncc(Cl)c(Nc3ccc4c(c3)n(CCC(C)(C)O)c(=O)n4C)n2)C[C@H](C)C1(F)F
inactive: Tm [1] 40 °C | LogFC [2] 0.0744 | Tm [3] 44 °C | inhibition [4] 16.1% | Tm [5] 46 °C | LogFC [6] -0.111 | LogFC [7] -0.044 | Tm [8] 45 °C | Tm [9] 46 °C | inhibition [10] -2.86% | Tm [11] 44 °C
